Laboratory results taken from publication PMC6271890, “Synthesis and Antiproliferative Activity of Some Novel Triazole Derivatives from Dehydroabietic Acid” (Molecules, 2014).

Experiments:
[1] = system: gastric epithelial adenocarcinoma (AGS) cells; experiment: Antiproliferative assay (MTT reduction), AGS cells; format: cell-based, human; parameters: key to antiproliferative activity in words, AGS: IC50 values > 100 µM were considered inactive; details: for IC50: Homo sapiens, 72 h, AGS gastric adenocarcinoma cells, 3 days treatment, MTT, mean ± SD
Method: (§1) All human cell lines used in this work were purchased from the American Type Culture Collection (ATCC, Manasas, VA, USA). Normal lung MRC-5 fibroblasts (CCL-171), SK-MES-1 lung cancer cells (HTB-58) and J82 bladder carcinoma cells (HTB-1) were grown as monolayers in minimum essential Eagle medium (MEM) with Earles’s salts, 2 mM L-glutamine and 1.5 g/L sodium bicarbonate. Gastric adenocarcinoma AGS cells (CRL-1739) were grown as monolayers in Ham F-12 medium containing 1 mM L-glutamine and 1.5 g/L sodium bicarbonate. All media were supplemented with 10% heat-inactivated FBS, 100 IU/mL penicillin and 100 µg/mL streptomycin. Cells were grown in a humidified incubator with 5% CO2 in air at 37 °C. For the antiproliferative assay, cells were plated at a density of 5 × 10^4 cells/mL. Cells were seeded in 96-well plates (100 µL/well). One day after seeding, cells were treated with medium containing the compounds at concentrations ranging from 0 up to 100 µM during 3 days. The compounds were dissolved in DMSO (1% final concentration) and complete medium. Untreated cells (medium containing 1% DMSO) were used as 100% viability controls. […] Each concentration was tested in sextuplicate and experiments were repeated 2 times. Cell viability was determined by means of the MTT reduction assay at the end of the incubation with the products. The results were transformed to percentage of controls and the IC50 value was obtained adjusting the dose-response curve to a sigmoidal model. The software used was OriginPro 8.1 [23].

[2] = system: bladder carcinoma (J82) cells; experiment: Antiproliferative assay (MTT reduction), J82 cells; format: cell-based, human; parameters: key to antiproliferative activity in words, J82: IC50 values > 100 µM were considered inactive; details: for IC50: Homo sapiens, 72 h, J82 bladder carcinoma cells, 3 days treatment, MTT, mean ± SD
Method: as §1

[3] = system: lung cancer (SK-MES-1) cells; experiment: Antiproliferative assay (MTT reduction), SK-MES-1 cells; format: cell-based, human; details: for IC50: Homo sapiens, 72 h, SK-MES-1 lung cancer cells, 3 days treatment, MTT, mean ± SD; for antiproliferative activity in words, SK-MES-1: SK-MES-1 cells
Method: as §1, with “Normal lung MRC-5 fibroblasts (CCL-171), SK-MES-1 lung cancer cells (HTB-58) and J82 bladder carcinoma cells (HTB-1) were grown as monolayers in minimum essential Eagle medium (MEM) with Earles’s salts, 2 mM L-glutamine and 1.5 g/L sodium bicarbonate. Gastric adenocarcinoma AGS cells (CRL-1739) were grown as monolayers in Ham F-12 medium containing 1 mM L-glutamine and 1.5 g/L sodium bicarbonate.” left out, “The results were transformed to percentage of controls and the IC50 value was obtained adjusting the dose-response curve to a sigmoidal model.” left out

[4] = system: normal lung fibroblasts (MRC-5); experiment: Antiproliferative assay (MTT reduction), MRC-5 fibroblasts; format: cell-based, human; parameters: key to antiproliferative activity in words, MRC-5: IC50 values > 100 µM were considered inactive; details: for IC50: Homo sapiens, MRC5, 72 h, MRC-5 normal lung fibroblasts, 3 days treatment, MTT, mean ± SD; for antiproliferative activity in words, MRC-5: MRC-5 fibroblasts
Method: as §1, with “Normal lung MRC-5 fibroblasts (CCL-171), SK-MES-1 lung cancer cells (HTB-58) and J82 bladder carcinoma cells (HTB-1) were grown as monolayers in minimum essential Eagle medium (MEM) with Earles’s salts, 2 mM L-glutamine and 1.5 g/L sodium bicarbonate. Gastric adenocarcinoma AGS cells (CRL-1739) were grown as monolayers in Ham F-12 medium containing 1 mM L-glutamine and 1.5 g/L sodium bicarbonate.” left out, “The results were transformed to percentage of controls and the IC50 value was obtained adjusting the dose-response curve to a sigmoidal model.” left out

[5] = system: MCF-7, Hela and liver cancer 7721 cells; parameters: method as in PMID 21345546; details: range over MCF-7, Hela and liver cancer 7721 cells; read-out: IC50 values (cytotoxicity); cited from earlier work

Row | Structure (SMILES) | IC50 [1] [µM] | IC50 [2] [µM] | IC50 [3] [µM] | IC50 [4] [µM] | antiproliferative activity in words, SK-MES-1 [3] | antiproliferative activity in words, MRC-5 [4] | antiproliferative activity in words, AGS ([1]; AGS cells) | antiproliferative activity in words, J82 ([2]; J82 cells) | IC50 [5] [µM]
1 | CC(C)c1ccc2c(c1)CCC1[C@](C)(C(=O)OCc3cn(-c4ccccc4)nn3)CCC[C@]21C (some centres unmarked) [Compound 1, 18-((1-Phenyl-1H-1,2,3-triazol-4-yl)methyl)-8,11,13-abietatrienoate] | 79.9 ± 4.8 | 46.3 ± 2.3 | 77.3 ± 4.7 | 85.8 ± 4.6 | – | – | – | – | –
2 | CC(C)c1ccc2c(c1)CCC1[C@](C)(C(=O)OCCc3cn(-c4ccccc4)nn3)CCC[C@]21C (some centres unmarked) [Compound 2, 18-(2-(1-Phenyl-1H-1,2,3-triazol-4-yl)ethyl)-8,11,13-abietatrienoate] | 90.2 ± 5.4 | 76.3 ± 5.9 | > 100 | > 100 | inactive | inactive | – | – | –
3 | CC(C)c1ccc2c(c1)CCC1[C@](C)(C(=O)OCc3cn(CSc4ccccc4)nn3)CCC[C@]21C (some centres unmarked) [Compound 3, 18-((((1-Phenylthio)methyl)-1H-1,2,3-triazol-4-yl)methyl)-8,11,13-abietatrienoate] | 94.4 ± 5.4 | > 100 | > 100 | > 100 | inactive | inactive | – | – | –
4 | CC(C)c1ccc2c(c1)CCC1[C@](C)(C(=O)OCCc3cn(CSc4ccccc4)nn3)CCC[C@]21C (some centres unmarked) [Compound 4, 18-(2-(((1-Phenylthio)methyl)-1H-1,2,3-triazol-4-yl)ethyl)-8,11,13-abietatrienoate] | 66 ± 4.4 | 28.1 ± 1.7 | 28.9 ± 2.1 | 50.2 ± 3.1 | – | – | – | – | –
5 | CC(C)c1ccc2c(c1)CCC1[C@](C)(COC(=O)CCc3cn(-c4ccccc4)nn3)CCC[C@]21C (some centres unmarked) [Compound 5, 18-(3-(1-Phenyl-1H-1,2,3-triazol-4-yl)propanoyloxy)-8,11,13-abietatriene] | 44.5 ± 1.9 | 83.3 ± 3.3 | 6.1 ± 0.3 | 17.1 ± 0.6 | – | – | – | – | –
6 | CC(C)c1ccc2c(c1)CCC1[C@](C)(COC(=O)CCCCc3cn(-c4ccccc4)nn3)CCC[C@]21C (some centres unmarked) [Compound 6, 18-(5-(1-Phenyl-1H-1,2,3-triazol-4-yl)pentanoyloxy)-8,11,13-abietatriene] | > 100 | > 100 | > 100 | > 100 | inactive | inactive | inactive | inactive | –
7 | CC(C)c1ccc2c(c1)CCC1[C@](C)(COC(=O)CCc3cn(Cc4ccccc4)nn3)CCC[C@]21C (some centres unmarked) [Compound 7, 18-(3-(1-Benzyl-1H-1,2,3-triazol-4-yl)propanoyloxy)-8,11,13-abietatriene] | 36.7 ± 1.5 | 25.6 ± 1.9 | 39.7 ± 2.7 | > 100 | – | inactive | – | – | –
8 | CC(C)c1ccc2c(c1)CCC1[C@](C)(COC(=O)CCCCc3cn(Cc4ccccc4)nn3)CCC[C@]21C (some centres unmarked) [Compound 8, 18-(5-(1-Benzyl-1H-1,2,3-triazol-4-yl)pentanoyloxy)-8,11,13-abietatriene] | 35.9 ± 1.7 | 26.8 ± 1.8 | 37 ± 2.6 | > 100 | – | inactive | – | – | –
9 | CC(C)c1ccc2c(c1)CCC1[C@](C)(COC(=O)CCc3cn(CSc4ccccc4)nn3)CCC[C@]21C (some centres unmarked) [Compound 9, 18-(3-(((1-Phenylthio)methyl)-1H-1,2,3-triazol-4-yl)propanoyloxy)-8,11,13-abietatriene] | 47.7 ± 2.9 | 49.9 ± 2.9 | 43.6 ± 2.9 | 73.3 ± 3.7 | – | – | – | – | –
10 | CC(C)c1ccc2c(c1)CCC1[C@](C)(COC(=O)CCCCc3cn(CSc4ccccc4)nn3)CCC[C@]21C (some centres unmarked) [Compound 10] | 58.9 ± 3.4 | 33.9 ± 1.7 | 42.7 ± 2.9 | > 100 | – | – | – | – | –
11 | COc1ccc(-n2cc(CCC(=O)OC[C@]3(C)CCC[C@]4(C)c5ccc(C(C)C)cc5CCC34)nn2)cc1 (some centres unmarked) [Compound 11, 18-(3-(1-(4-Anisidyl)-1H-1,2,3-triazol-4-yl)propanoyloxy)-8,11,13-abietatriene] | > 100 | > 100 | > 100 | > 100 | – | – | – | – | –
12 | COc1ccc(-n2cc(CCCCC(=O)OC[C@]3(C)CCC[C@]4(C)c5ccc(C(C)C)cc5CCC34)nn2)cc1 (some centres unmarked) [Compound 12, 18-(5-(1-(4-Anisidyl)-1H-1,2,3-triazol-4-yl)pentanoyloxy)-8,11,13-abietatriene] | > 100 | > 100 | > 100 | > 100 | – | – | – | – | –
13 | CC(C)c1ccc2c(c1)CCC1[C@](C)(COC(=O)CCc3cn(-c4cccc(Cl)c4)nn3)CCC[C@]21C (some centres unmarked) [Compound 13, 18-(3-(1-(3-Chlorophenyl)-1H-1,2,3-triazol-4-yl)propanoyloxy)-8,11,13-abietatriene] | > 100 | > 100 | > 100 | > 100 | – | – | – | – | –
14 | CC(C)c1ccc2c(c1)CCC1[C@](C)(COC(=O)CCCCc3cn(-c4cccc(Cl)c4)nn3)CCC[C@]21C (some centres unmarked) [Compound 14, 18-(5-(1-(3-Chlorophenyl)-1H-1,2,3-triazol-4-yl)pentanoyloxy)-8,11,13-abietatriene] | > 100 | > 100 | > 100 | > 100 | – | – | – | – | –
15 | Cc1ccc(S(=O)(=O)n2cc(CCC(=O)OC[C@]3(C)CCC[C@]4(C)c5ccc(C(C)C)cc5CCC34)nn2)cc1 (some centres unmarked) [Compound 15, 18-(3-(1-(4-Toluenesulfonyl)-1H-1,2,3-triazol-4-yl)propanoyloxy)-8,11,13-abietatriene] | 74.9 ± 3.7 | > 100 | 84.4 ± 5.1 | 82.9 ± 4.5 | – | – | – | – | –
16 | Cc1ccc(S(=O)(=O)n2cc(CCCCC(=O)OC[C@]3(C)CCC[C@]4(C)c5ccc(C(C)C)cc5CCC34)nn2)cc1 (some centres unmarked) [Compound 16, 18-(5-(1-(4-Toluenesulfonyl)-1H-1,2,3-triazol-4-yl)pentanoyloxy)-8,11,13-abietatriene] | 56.9 ± 3.3 | 75 ± 6.1 | 74.2 ± 5.4 | 68.8 ± 4.5 | – | – | – | – | –
17 | COc1cc([C@@H]2c3cc4c(cc3[C@@H](O[C@@H]3O[C@@H]5CO[C@@H](C)O[C@H]5[C@H](O)[C@H]3O)[C@H]3COC(=O)[C@H]23)OCO4)cc(OC)c1O [Etoposide, reference compound] | 0.58 ± 0.02 | 3.49 ± 0.16 | – | – | – | – | – | – | –
18 | CN(C)CCN1C(=O)c2cccc3cc(N)cc(c23)C1=O [amonafide] | – | – | – | – | – | – | – | – | 1.68 to 4.27
